Test results from article PMC6556873, “Rapid Covalent-Probe Discovery by Electrophile-Fragment Screening” (Journal of the American Chemical Society, 2019).
Like-named read-outs stand apart in the source and are kept apart here.

Key:
BSA = target: T1, BSA (Bos taurus, UniProt P02769); parameters: Intact protein LC/MS covalent labelling, fragments in pools of five, 200 uM each, 4 °C; details: 24 h, 4 °C, pool of five; 200 µM; covalent
T1 construct: gene ALB

NNMT (hNNMT) = target: T2, NNMT (hNNMT) (Homo sapiens, UniProt P40261); parameters: Intact protein LC/MS covalent labelling, fragments in pools of five, 200 uM each, 4 °C; details: 24 h, 4 °C, pool of five; 200 µM; covalent
T2 construct: wild type, N-terminal His6 tag kept (no cleavage described), E. coli, construct 31248 Da
T2 sequence (P40261 1-264): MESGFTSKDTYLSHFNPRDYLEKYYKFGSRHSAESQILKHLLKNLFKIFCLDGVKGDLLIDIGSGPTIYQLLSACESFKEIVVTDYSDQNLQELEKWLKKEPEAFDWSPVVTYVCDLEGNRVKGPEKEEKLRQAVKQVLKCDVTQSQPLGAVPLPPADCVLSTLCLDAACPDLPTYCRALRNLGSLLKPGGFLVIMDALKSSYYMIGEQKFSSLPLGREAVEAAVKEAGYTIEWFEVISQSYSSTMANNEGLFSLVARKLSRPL

NUDT7 = target: T3, NUDT7 (Homo sapiens, UniProt P0C024); parameters: Intact protein LC/MS covalent labelling, fragments in pools of five, 200 uM each, 4 °C; details: 24 h, 4 °C, pool of five; 200 µM; covalent
T3 construct: residues 14-235, E. coli, pNIC28-Bsa4, N-terminal His6 tag removed by TEV, construct 26672 Da

OTUB2 (OTUB2A) = target: T4, OTUB2 (OTUB2A) (Homo sapiens, UniProt Q96DC9); parameters: Intact protein LC/MS covalent labelling, fragments in pools of five, 200 uM each, 4 °C; details: 24 h, 4 °C, pool of five; 200 µM; covalent
T4 construct: full length residues 1-234, E. coli BL21(DE3)-R3, His tag removed by TEV, construct 27312 Da
T4 sequence (Q96DC9 1-234): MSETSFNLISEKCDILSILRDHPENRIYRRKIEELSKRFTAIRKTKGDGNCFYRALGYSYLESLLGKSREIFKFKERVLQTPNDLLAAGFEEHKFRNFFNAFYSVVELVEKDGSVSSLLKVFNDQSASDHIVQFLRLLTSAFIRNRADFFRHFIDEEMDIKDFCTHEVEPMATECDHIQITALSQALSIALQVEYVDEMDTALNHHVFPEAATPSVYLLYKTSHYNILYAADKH

PCAF = target: T5, PCAF (Homo sapiens, UniProt Q92831); parameters: Intact protein LC/MS covalent labelling, fragments in pools of five, 200 uM each, 4 °C; details: 24 h, 4 °C, pool of five; 200 µM; covalent
T5 construct: gene KAT2B

in vitro [1] = test: in vitro; parameters: species or system CCD841, HEK293; details: human, hb2 cells, read-out: HB-2 Cells Viability (%)
in vitro [2] = test: in vitro; parameters: species or system HB2, HEK293; details: human, ccd841 cells
in vitro [3] = test: in vitro; parameters: species or system HB2, CCD841; details: human, hek293 cells

T5 sequence (Q92831 whole entry, the tested form may be a part): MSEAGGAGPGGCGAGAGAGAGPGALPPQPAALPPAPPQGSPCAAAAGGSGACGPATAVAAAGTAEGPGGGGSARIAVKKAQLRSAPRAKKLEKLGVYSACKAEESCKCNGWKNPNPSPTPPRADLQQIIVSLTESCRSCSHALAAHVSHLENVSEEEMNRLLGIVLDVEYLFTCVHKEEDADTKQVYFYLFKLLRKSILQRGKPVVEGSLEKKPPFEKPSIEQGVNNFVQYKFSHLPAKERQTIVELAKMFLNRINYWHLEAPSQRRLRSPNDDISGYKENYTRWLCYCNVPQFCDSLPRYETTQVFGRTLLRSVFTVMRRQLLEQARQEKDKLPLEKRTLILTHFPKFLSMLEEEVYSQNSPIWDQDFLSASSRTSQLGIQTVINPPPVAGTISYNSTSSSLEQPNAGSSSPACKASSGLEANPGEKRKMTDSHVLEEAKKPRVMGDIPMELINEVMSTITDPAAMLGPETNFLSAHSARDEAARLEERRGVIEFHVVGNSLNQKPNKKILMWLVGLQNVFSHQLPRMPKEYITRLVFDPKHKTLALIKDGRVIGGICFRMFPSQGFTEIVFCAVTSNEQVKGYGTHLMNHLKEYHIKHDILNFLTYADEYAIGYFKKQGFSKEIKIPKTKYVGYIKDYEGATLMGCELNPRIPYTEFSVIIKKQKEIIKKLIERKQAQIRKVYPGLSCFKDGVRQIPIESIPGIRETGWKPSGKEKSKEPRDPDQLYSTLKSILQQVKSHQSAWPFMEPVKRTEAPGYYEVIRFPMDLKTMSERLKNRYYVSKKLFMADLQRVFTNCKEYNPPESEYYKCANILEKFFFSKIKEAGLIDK
T3 sequence (P0C024 14-235): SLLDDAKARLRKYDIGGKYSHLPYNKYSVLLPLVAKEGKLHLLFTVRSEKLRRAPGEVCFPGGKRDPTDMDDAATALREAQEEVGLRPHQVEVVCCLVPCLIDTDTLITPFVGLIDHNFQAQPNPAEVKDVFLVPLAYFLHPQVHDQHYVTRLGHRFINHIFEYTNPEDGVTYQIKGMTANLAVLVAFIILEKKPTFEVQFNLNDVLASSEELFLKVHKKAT
T1 sequence (P02769 whole entry, the tested form may be a part): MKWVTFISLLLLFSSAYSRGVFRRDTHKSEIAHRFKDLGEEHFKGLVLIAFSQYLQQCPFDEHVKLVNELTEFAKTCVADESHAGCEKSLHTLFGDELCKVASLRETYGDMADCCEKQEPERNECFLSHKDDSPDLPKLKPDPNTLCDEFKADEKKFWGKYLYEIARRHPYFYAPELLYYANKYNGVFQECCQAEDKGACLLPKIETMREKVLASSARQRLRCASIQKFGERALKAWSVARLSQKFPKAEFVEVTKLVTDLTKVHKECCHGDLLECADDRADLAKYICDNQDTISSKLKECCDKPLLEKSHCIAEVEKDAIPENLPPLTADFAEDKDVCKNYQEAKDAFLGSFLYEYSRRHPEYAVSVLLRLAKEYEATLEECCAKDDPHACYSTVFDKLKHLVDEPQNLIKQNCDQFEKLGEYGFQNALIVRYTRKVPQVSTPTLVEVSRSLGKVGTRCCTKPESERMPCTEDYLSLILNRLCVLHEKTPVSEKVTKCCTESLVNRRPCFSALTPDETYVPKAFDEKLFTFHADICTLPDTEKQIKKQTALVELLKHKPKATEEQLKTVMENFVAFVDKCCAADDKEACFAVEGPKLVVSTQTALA

Row | SMILES | BSA (BSA) | NNMT (NNMT (hNNMT)) | NUDT7 (NUDT7) | OTUB2 (OTUB2 (OTUB2A)) | PCAF (PCAF) | viability at 48 h, 10 µM (in vitro [1]) [%] | viability at 48 h, 10 µM (in vitro [2]) [%] | viability at 48 h, 10 µM (in vitro [3]) [%]
1 | N#CC1(NC(=O)CCl)CCCCC1 [PCM-0102993] | 0 | 0 | 0.08 | 0 | 0 | 87.6 | 83.3 | 66
2 | Cc1cc(C)c(NC(=O)CCl)c(Cl)c1 [PCM-0102994] | 0 | 0.46 | 0.26 | 0 | 0 | 94 | 73.1 | 74.1
3 | CC(NC(=O)NC(=O)CCl)C1CC2CCC1C2 (stereo not shown) [PCM-0102997] | 0 | 0.23 | 0 | 0.05 | 0 | 98.1 | 116 | 91.4
4 | O=C(CCl)Nc1ccc(F)cc1 [PCM-0103002] | 0 | 0 | 0 | 0.3 | 0 | 68.5 | 71.8 | 35.5
5 | C=CC(=O)N1CCCN(C(=O)c2cc(Cl)cn2C)CC1 [PCM-0103003] | 0 | 0 | 0 | 0 | 0 | 105 | 101 | 96.7
6 | Cl.O=C(CCl)N1CCN(Cc2ccco2)CC1 [PCM-0103006] | 0 | 0 | 0 | 0 | 0 | 88.6 | 85 | 65.7
7 | CCc1sc(C(=O)NNC(=O)CCl)cc1C [PCM-0103009] | 0 | 0 | 0 | 1 | 0 | 70.4 | 68.3 | 73.2
8 | CCOC(=O)C1CCCN(C(=O)CCl)C1 (stereo not shown) [PCM-0103015] | 0 | 0.13 | 0 | 0.09 | 0 | 104 | 98.8 | 98.8
9 | CS(=O)(=O)c1ccc(F)c(NC(=O)CCl)c1 [PCM-0103018] | 0 | 0 | 0 | 0.16 | 0 | 57.6 | 53.6 | 24.3
10 | CC(C)N(C(=O)CCl)C(C)C [PCM-0103023] | 0 | 0 | 0 | 0 | 0 | 102 | 106 | 110
11 | Cc1ccc(NC(=O)CCl)c(F)c1 [PCM-0103028] | 0.18 | 0.23 | 0 | 0.14 | 0 | 42.3 | 58.4 | 29
12 | CC(NC(=O)CCl)c1ccc(F)cc1F (stereo not shown) [PCM-0103035] | 0 | 0.58 | 0.15 | 0.34 | 0 | 77.6 | 78.2 | 66.4
13 | Cl.O=C(CCl)Nc1ccc(Cl)cn1 [PCM-0103036] | 0.19 | 0.19 | 0 | 0 | 0 | 98.5 | 96.4 | 113
14 | CC(C)(C)n1ncc2c1CCCC2NC(=O)CCl.Cl (stereo not shown) [PCM-0103046] | 0 | 0 | 0 | 0.36 | 0 | 81.5 | 90.9 | 89.3
